Legend:
[1] = test system: biofilms of Pseudomonas aeruginosa PAO1, Enterococcus faecalis V583 and Staphylococcus aureus Mu50; experiment: Biofilm dry weight after incubation of formed three-species biofilms with treatments; format: cell-based; conditions: biomass dry weight of treated mixed biofilm, 80° C. 48 hours drying; incubation 37° C., 140 rpm; triplicate; Control 126
Procedure: (§1) Pseudomonas aeruginosa PAO1 (ATCC number: BAA-47), Enterococcus faecalis V583 (ATCC number: 700802), and Staphylococcus aureus Mu50 (ATCC number: 700699) grown on agar plates made from tryptic soy broth (TSB, Sigma Chemical Co., St. Louis, Mo., USA) were inoculated into TSB broth and grown at 37° C. in a shaker for 16 hr. An aliquot was diluted in TSB broth to a series of dilutions for each individual bacteria type. The diluted bacteria were plated out to count colony forming units (CFU). They were further diluted to 1×10^6 cfu ml^−1 and mixed equally as inoculums. Bolton broth (Oxoid Ltd, Basingstock, Hampshire, England) with 50% Bovine plasma (Biomeda, Foster City, Calif., USA) was used for biofilm formation media. […]
(§2) In a series of runs the formed biofilms were washed and then incubated with the three CAZS solutions, then associated with a 30 μg/ml solution of Gentamicin sulfate (MP Biomedicals, Illkirch, France) in distilled water, or with a 20 ppm solution of 2,4,4′-trichloro-2-hydroxydiphenyl ether (Triclosan, KIC Chemicals, New Paltz, N.Y., USA) dissolved in propylene glycol (ScienceLab, Houston, Tex., USA). […] The biomass dry weight was measured as the total weight minus the empty tube weight measured before use. […] A separate set of tubes in triplicate was used for DNA extraction and quantitative PCR analysis to determine relative bacterial levels in the treated biofilms.

P. aeruginosa = experiment: Quantitative PCR analysis of relative bacterial levels in treated biofilms; format: cell-based, Pseudomonas aeruginosa PAO1; conditions: DNA extraction and quantitative PCR of treated mixed biofilm; Control 46.8
Procedure: as §1, §2

E. faecalis = experiment: as above; format: cell-based, Enterococcus faecalis V583; conditions: DNA extraction and quantitative PCR of treated mixed biofilm; Control 29.7
Procedure: as §1, §2

S. aureus = experiment: as above; format: cell-based, Staphylococcus aureus Mu50; conditions: DNA extraction and quantitative PCR of treated mixed biofilm; Control 23.5
Procedure: Pseudomonas aeruginosa PAO1 (ATCC number: BAA-47), Enterococcus faecalis V583 (ATCC number: 700802), and Staphylococcus aureus Mu50 (ATCC number: 700699) grown on agar plates made from tryptic soy broth (TSB, Sigma Chemical Co., St. Louis, Mo., USA) were inoculated into TSB broth and grown at 37° C. in a shaker for 16 hr. An aliquot was diluted in TSB broth to a series of dilutions for each individual bacteria type. The diluted bacteria were plated out to count colony forming units (CFU). They were further diluted to 1×10^6 cfu ml^−1 and mixed equally as inoculums. Bolton broth (Oxoid Ltd, Basingstock, Hampshire, England) with 50% Bovine plasma (Biomeda, Foster City, Calif., USA) was used for biofilm formation media. Glass 16×150 mm test tubes with caps were autoclaved, and 7 ml biofilm formation media aseptically dispensed in each tube. The normalized cultures of the three bacteria were mixed and 10 μl portions of the combined and normalized 1×10^6 CFU ml^−1 culture were inoculated into glass tubes by ejecting the pipette tips into the tubes. […]
The resulting mixtures were stirred at 37° C. and 140 rpm for 1, 2, 3 and 4 hours. […] The biomass dry weight was measured as the total weight minus the empty tube weight measured before use. […] A separate set of tubes in triplicate was used for DNA extraction and quantitative PCR analysis to determine relative bacterial levels in the treated biofilms.

Molecule	Dry Weight [1]	Relative Bacterial Levels P. aeruginosa (P. aeruginosa)	Relative Bacterial Levels E. faecalis (E. faecalis)	Relative Bacterial Levels S. aureus (S. aureus)
Gentamicin sulfate [20 mg/ml Gentamicin]	78 mg	0.2	50.3	49.6
Oc1cc(Cl)ccc1Oc1ccc(Cl)cc1Cl [20 ppm Triclosan, 2,4,4′-trichloro-2-hydroxydiphenyl ether]	88 mg	60.0	39.9	0.13

Source: US9700344B2, “Method for treating chronic wounds with an extracellular polymeric substance solvating system” (priority 2008, dated 2017)
